From patent publication US20240398970A1, “B7-H3 TARGETING ANTIBODY-DRUG CONJUGATE, AND PREPARATION METHOD THEREFOR AND USE THEREOF” (priority 2020, published 2024)
Numbered stars: 1 amine (or outer) side, 2 acyl side, 3 side chain; on linkers, the order of the positions; unused ones are H or OH. Square brackets hold non-standard residues; d marks the D form. Peptide text beside a SMILES is read from it. * marks the point of attachment. X1 = CC[C@@]1(O)C(=O)OCc2c1cc1n(c2=O)Cc2c-1nc1cc(F)c(C)c3c1c2C(N*)CC3; Hexanoyl(6-maleimido) = O=C1C=CC(=O)N1CCCCCC(=O)*; NHCH2OCH2CO = O=C(COCN[*:1])[*:2]

Assays:
[1] = Coupling of linker-drug conjugates with other/different antibodies; type: physicochemical; details: coupling with antibodies other than or including FDA016
cathepsin B = cathepsin B (Homo sapiens, UniProt P07858); experiment: In vitro enzyme digestion of linker-drug conjugates; type: in vitro ADME; details: pH 5.0 to 7.0
Protocol: The linker-drug conjugate (LE14 and GGFG-Dxd) was co-incubated with cathepsin B in three different pH (5.0, 6.0, 7.0) buffers. Samples were taken at different time points and entered into a high-performance liquid chromatography-mass spectrometry instrument. The external standard method (with DXD as the external standard) was used to determine the release percentage of the drug.

NCI-N87 cell line = experiment: Killing activity on NCI-N87 before and after enzyme digestion by cathepsin B system; type: cell-based; details: NCI-N87, 144 hours, after cathepsin B system pH 5.0, 37° C., 4 hours; read-out: IC50 (based on SN-38 equivalent) After Enzyme Digestion
Protocol: NCI-N87 cell line was selected as the experimental cell lines. After the sample was incubated in cathepsin B system (100 mM sodium acetate-acetic acid buffer, 4 mM dithiothreitol, pH 5.0) at 37° C. for 4 hours, the obtained sample was diluted with culture medium to different concentrations. 8 concentrations (1.5 to 10-fold dilution) were set from 70 nM to 0.003 nM of SN-38 concentration. […] The IC50 value was calculated by reading the […] data after chemical luminescent staining with CellTiter-Glo® Luminescent Cell Viability Assay.

## CC[C@@]1(O)C(=O)OCc2c1cc1n(c2=O)Cc2c-1nc1cc(F)c(C)c3c1c2C(NC(=O)COCNC(=O)CNC(=O)[C@H](Cc1ccccc1)NC(=O)CNC(=O)CNC(=O)CCCCCN1C(=O)C=CC1=O)CC3 (stereo partly shown) [GGFG-Dxd] ({Hexanoyl(6-maleimido)}-GGFG[NHCH2OCH2CO]-X1)
[1]
  Aggregation ratio when coupled with other/different antibodies: high aggregation ratio
  Precipitation when coupled with other/different antibodies: produced precipitation
Cathepsin B
  Speed of enzyme digestion: slow speed of enzyme digestion

## CCc1c2c(nc3ccc(O)cc13)-c1cc3c(c(=O)n1C2)COC(=O)[C@]3(O)CC [SN-38, 7-ethyl-10-hydroxycamptothecin]
NCI-N87 cell line
  IC50: 7.45 nM
